From publication PMC4760274, “Elongation factor 2 kinase promotes cell survival by inhibiting protein synthesis without inducing autophagy” (Cellular Signalling, 2016)

What was measured:
[1] = system: TSC2−/− MEFs; assay: caspase 3/7 assay in TSC2−/− MEFs; assay type: cell-based, mouse; details: TSC2−/− cells; rapamycin 20 nM; 48 h; Fig. 4B
Protocol: Caspase 3/7 assays (G8090, Promega) were performed according to the manufacturer's instructions. Briefly, 10,000 cells/well were plated overnight in a 96-well plate. Cells were treated as described in the figure legends for the indicated time period. To measure caspase 3/7 activity, 50 μL of caspase Glo 3/7 reagent was added to each well for 2 h with constant shaking at room temperature. Luminescence was measured using a BMG Labtech FLUOstar Optimi plate reader. Cytotoxicity was evaluated by CellTox Green® cytotoxicity assay (Promega). Briefly, 10,000 cells/well were plated overnight in a 96-well plate. Cells were treated as described in the figure legends for the indicated time period. Fluorescence was measured at 485–500 nmEx/520–530 nmEm using a BMG Labtech FLUOstar Optimi plate reader.
(§1) Fig. 4 eEF2K aids the survival of TSC2^−/− cells under glucose-starved conditions. […] Cells were then lysed and samples containing equal amounts of protein were analysed by western blot using the indicated antibodies. Values given below each lane show quantitation of the signal for LC3II, corrected for the actin signal or P-eEF2, corrected for the eEF2 signal from multiple experiments as in (A), mean ± SEM (control cells without treatment = 1; n = 3). (B) Cells were treated for 48 h as described in (A), except that they were processed for caspase 3/7 assay. […]

[2] = system: P-eEF2 in TSC2−/− MEFs; assay: eEF2 phosphorylation in TSC2−/− MEFs (western blot); assay type: cell-based, mouse; details: TSC2−/− cells starved of glucose; rapamycin 20 nM; Fig. 4A
Protocol: After treatment, cells were lysed in ice-cold lysis buffer containing 1% (v/v) Triton X-100 (215680010, Acros Organics), 50 mM Tris (T6066-1KG, Sigma-Aldrich)–HCl (258148-2.5 L, Sigma-Aldrich) pH 7.4, 50 mM NaCl (BP358-212, Fisher Scientific), 0.2 mM EDTA (BP120-500, Fisher Scientific), 0.2 mM EGTA (E1102, Melford), 50 mM β-glycerophosphate (G9422, Sigma-Aldrich), 1 mM Na3VO4 (S6508, Sigma-Aldrich), 15 mM β-mercaptoethanol (125472500, Acros Organics) and 1 × protease inhibitor cocktail (5056489001, Roche). Lysates were spun at 16,000 × g for 10 min at 4 °C; the supernatants were kept and total protein concentration was quantified by Bradford assay following the manufacturer's instructions. […]
as §1, with “[…] The − signs of the Glucose row are barely visible, so the condition given” for “(B) Cells were treated”, “each lane is my best reading. / Panel A: which number belongs to which lane or group (Con, JAN-613, JAN-384) is judged from horizontal position only.” for “48 h as described in (A), except that they were processed for caspase 3/7 assay.”

[3] = system: P-eEF2 in A549 cells; assay: eEF2 phosphorylation in A549 cells (western blot); assay type: cell-based, human; details: 16 h, AZD8055 1 μM
Protocol: (§2) After treatment, cells were lysed in ice-cold lysis buffer containing 1% (v/v) Triton X-100 (215680010, Acros Organics), 50 mM Tris (T6066-1KG, Sigma-Aldrich)–HCl (258148-2.5 L, Sigma-Aldrich) pH 7.4, 50 mM NaCl (BP358-212, Fisher Scientific), 0.2 mM EDTA (BP120-500, Fisher Scientific), 0.2 mM EGTA (E1102, Melford), 50 mM β-glycerophosphate (G9422, Sigma-Aldrich), 1 mM Na3VO4 (S6508, Sigma-Aldrich), 15 mM β-mercaptoethanol (125472500, Acros Organics) and 1 × protease inhibitor cocktail (5056489001, Roche). Lysates were spun at 16,000 × g for 10 min at 4 °C; the supernatants were kept and total protein concentration was quantified by Bradford assay following the manufacturer's instructions.
(§3) These procedures were performed as described previously.
Cells were then treated with 10 mM 2-deoxyglucose (2DG), rapamycin (100 nM), AZD8055 (1 μM) or MG132 (10 μM) for 16 h. Cells were then lysed and samples containing equal amounts of protein were analysed by western blot using the indicated antibodies. Values given below each lane show quantitation of the signal for LC3II, corrected for the actin signal from multiple experiments as in (A) expressed as LC3II normalized to actin, mean ± SEM (control cells without treatment = 1; n = 3). (B) A549 cells were cultured as in (A) to induce eEF2K knockdown. A549 cells were transiently transfected with the GST-BHMT construct and maintained in full media in the presence or absence of AZD8055 (1 μM) for 16 h, in the presence of leupeptin and E64d. GST-BHMT was precipitated with glutathione agarose from the whole cell extracts (bottom panel). Values given below show the quantitation of data from multiple experiments as in (B) expressed as the level of BHMT fragment normalized to the control without IPTG, mean ± SEM (control cells without treatment = 1; n = 3). Values given below each lane show quantitation of the signal for P-eEF2, corrected for the eEF2 signal from multiple experiments as in (B) expressed as P-eEF2 normalized to eEF2, mean ± SEM (control cells without treatment = 1; n = 3). (C) Cells were treated as described in Supplemental Fig. S3, visualized by confocal microscopy and the rate of autophagosome–lysosome fusion was measured according to green/red fluorescence ratio which reflect the percentage of unfused LC3. Scale bar = 20 μm. (D) Data quantification of C, data are presented as means ± SEM. (n = 5) ***P < 0.001, obtained by two-way ANOVA (Dunnett's test). (E) Untransfected A549 cells were treated with AZD8055 and BafA1 as described in A, cell lysates were collected at T0, 1 and 3 h for immunoblotting analysis. Values given below each lane show quantitation of the signal for LC3II, corrected for the LC3I signal from multiple experiments as in (E) expressed as LC3II normalized to LC3I, mean ± SEM (control cells without treatment = 1; n = 3).

[4] = system: autolysosome formation in A549 cells; assay: autophagic flux analysis with mCherry-EGFP-LC3B in A549 cells; assay type: cell-based, human; details: AZD8055 1 μM, after release from BafA1, Fig. 2C, D
Protocol: A549 cells were transfected with a vector encoding mCherry-EGFP-LC3B, a tandem fluorescent-tagged LC3 (a kind gift from Dr. Terje Johansen, Biochemistry Department, Institute of Medical Biology, University of Tromsø, Norway), using lipofectamine 3000 (L3000001, Life technologies) following manufacturer's instructions. After treatment cells were washed twice in phosphate buffered saline (PBS, 18912-014, Gibco) and then fixed in 4% formaldehyde (F8775, Sigma-Aldrich) for 15 min. Fixed cells were washed thrice in PBS and permeabilized with 0.1% Triton-X 100 for 5 min. Cells were then again washed thrice in PBS and mounted in ProLong® Gold Antifade Mountant (P36935, Life technologies). Cells were visualized using Leica TCS SP8X/MP microscope equipped with a tuneable white light laser using a 40 × oil immersion objective lens (NA = 1.30) numerical aperture objective. Green/red fluorescence ratio (GFP loss upon autolysosome formation) was measured using the Leica Application Suite X (LAS X) software (version 1.1.0).
We also examined the progression of autolysosome formation using a tandem fluorescently-tagged LC3 (mCherry-EGFP-LC3B) which allowed us to determine autophagosome and lysosome fusion by evaluating loss of GFP fluorescence. Green (GFP) but not red (mCherry) fluorescence is quenched by protonation in response to acidified intra-lysosomal pH upon autolysosome fusion. […]

[5] = system: GST-BHMT cleavage (autophagic flux) in A549 cells; assay: GST-BHMT cleavage assay in A549 cells; assay type: cell-based, human; details: AZD8055 1 μM, 16 h, Fig. 2B
Protocol: Cells were lysed as above. […] The precipitated GST-BHMT was washed three times in the ice cold lysis buffer. Precipitates were then boiled in SDS-PAGE sample buffer, resolved by SDS-PAGE and analysed by western blotting using anti-GST antibody.
Cells were then treated with 10 mM 2-deoxyglucose (2DG), rapamycin (100 nM), AZD8055 (1 μM) or MG132 (10 μM) for 16 h. Cells were then lysed and samples containing equal amounts of protein were analysed by western blot using the indicated antibodies. […] (B) A549 cells were cultured as in (A) to induce eEF2K knockdown. A549 cells were transiently transfected with the GST-BHMT construct and maintained in full media in the presence or absence of AZD8055 (1 μM) for 16 h, in the presence of leupeptin and E64d. GST-BHMT was precipitated with glutathione agarose from the whole cell extracts (bottom panel). […] (E) Untransfected A549 cells were treated with AZD8055 and BafA1 as described in A, cell lysates were collected at T0, 1 and 3 h for immunoblotting analysis.

[6] = system: LC3II in A549 cells; assay: LC3 modification in A549 cells (western blot); assay type: cell-based, human; details: untransfected A549; AZD8055 1 μM; Fig. 2E
Protocol: as §2, §3
Cells were then treated with 10 mM 2-deoxyglucose (2DG), rapamycin (100 nM), AZD8055 (1 μM) or MG132 (10 μM) for 16 h. Cells were then lysed and samples containing equal amounts of protein were analysed by western blot using the indicated antibodies. Values given below each lane show quantitation of the signal for LC3II, corrected for the actin signal from multiple experiments as in (A) expressed as LC3II normalized to actin, mean ± SEM (control cells without treatment = 1; n = 3). (B) A549 cells were cultured as in (A) to induce eEF2K knockdown. […] (D) Data quantification of C, data are presented as means ± SEM. […]

[7] = 2DG 10 mM, rapamycin 100 nM, MG132 10 μM, Fig. 2A

What does the source list for `CO[C@H]1C[C@@H]2CC[C@@H](C)[C@@](O)(O2)C(=O)C(=O)N2CCCC[C@H]2C(=O)O[C@H]([C@H](C)C[C@@H]2CC[C@@H](O)[C@H](OC)C2)CC(=O)[C@H](C)/C=C(\C)[C@@H](O)[C@@H](OC)C(=O)[C@H](C)C[C@H](C)/C=C/C=C/C=C/1C` [rapamycin]?
adverse effect of glucose starvation (caspase 3/7 activity) countered [1]: fully; caspase activity in control conditions [1]: decreased; eEF2 phosphorylation [2]: large increase; phosphorylation of eEF2 [3, 7]: induced the phosphorylation of eEF2

Which “green/red ratio (mCherry-EGFP-LC3B) in comparison to control cells” value [4] does the source give for `COc1ccc(-c2ccc3c(N4CCOC[C@@H]4C)nc(N4CCOC[C@@H]4C)nc3n2)cc1CO` [AZD8055] here?
Its value is “remained low”.

What about the “cleavage of GST-BHMT” value [5] of the same molecule?
Its value is “marked increase”.

What about the “phosphorylation of eEF2” value [3, 7] of the same molecule?
The value was “induced the phosphorylation of eEF2”.

What about the “phosphorylation of eEF2” value ([3]; Fig. 2B) of the same molecule?
The value was “marked increase”.

And the LC3II/I ratio [6]?
The LC3II/I ratio was “further increase”.
